# Results from US20210261570A1, “ANTIBIOTIC RESISTANCE BREAKERS” (KING'S COLLEGE LONDON, priority 2017, published 2021).
# “And” between values parts separate entries of the source, which are not always exact repeats. Equal values may be shown once. Read-outs that look alike come from different tables or passages of the source.
# What was measured:
# [1] = tested on: multidrug resistant strains; test: Reserpine growth assay in several multidrug resistant strains; format: cell-based; details: FIG. 27
# Method: Reserpine was added at a final concentration of 10 g/mL (made up at 40 μg/mL in TSB, 50 μL per well). The bacteria were added at an OD of 0.01 in TSB (100 μL/well). The plate was a normal clear plate as used for MICs. OD was read every 30 minutes for 9 hours (the literature states 7 hours, but this is strain-dependent). Blanks of TSB and water were added to ensure no infections were present.
# [2] = tested on: S. aureus SA 238; test: MIC, MDR strains with target mutations; format: cell-based
# [3] = tested on: Staphylococcus aureus ATCC29213; test: Murine model of thigh infection (neutropenic ICR mice); details: for decrease of thigh bacterial burden compared to vehicle group: 8 h and 14 h post infection
# From the text: 40 Male mice used in these study were supplied by Charles River UK and were specific pathogen free. The strain of mouse used was Hsd:ICR (CD-1®), which is a well characterized outbred strain. Mice were 11-15 g on receipt at Evotec's facility and were allowed to acclimatize for minimum of 7 days prior to infection. Mice were approximately 28 g at the start of the study. Mice were housed in sterile individual ventilated cages exposing animals at all times to HEPA filtered sterile air. Mice had free access to food and water (sterile) and had sterile aspen chip bedding. The room temperature was 22° C.±1° C., with a relative humidity of 50-60% and maximum background noise of 56 dB. Mice were exposed to 12 hour light/dark cycles with dawn/dusk phases.
# All mice were rendered neutropenic by immunosuppression with cyclophosphamide at 150 mg/kg 4 days before infection and then 100 mg/kg 1 day before infection administered by intraperitoneal injection. The immunosuppression regime leads to neutropenia starting 24 hours post administration of the first injection, which continues throughout the study. Mice were infected approximately 24 hours after the second dose of immunosuppressive agent.
# Staphylococcus aureus ATCC29213 was used for the study.
# Whilst still under anaesthesia mice were administered a single dose of buprenorphine (0.03 mg/kg) subcutaneously for pain relief.
# Test articles and comparator were prepared in stock solutions at 10× concentration as described in Table 20. The stock solutions were prepared in aliquots (1 aliquot per time of dosing) and frozen at −20° C. The solutions were thawed and then diluted in water just before dosing to obtain the appropriate concentration of 5 mg/mL or 2 mg/mL for oral administration at 10 mL/kg of the dose of 50 mg/kg or 20 mg/kg respectively (Table 20). 10% DMSO in water was used as the vehicle
# After sacrifice of animal, both posterior thighs were removed, weighed, then homogenised in 2 mL PBS using a Precellys bead beater and the homogenates individually quantitatively cultured on CLED agar to determine the bacterial burdens.
# The data from the culture burdens were analysed using appropriate non-parametric statistical models (Kruskal-Wallis using Conover-Inman to make all pairwise comparisons between groups) with StatsDirect software v. 2.7.8., and compared to pre-treatment and vehicle controls.
# [4] = tested on: S. aureus SA 105; format: cell-based; details: in µg/mL
# [5] = tested on: S. aureus SA 215; test: MIC, MDR strains with target mutations; format: cell-based; details: in µg/mL
# [6] = Single dose pharmacokinetics study, oral and intravenous, blood and urine; format: in vivo; details: mouse; for Cmax: read-out: Co/Cmax
# Method: ICR breed Mice (CD-1® IGS mice) were used in these studies and was supplied by Charles River (Margate UK) and. The mice were allowed to acclimatise for at least 7 days before starting the study. Treatments was administered by oral route or intravenous route according to the table below. For the PK study, 12 mice for each compound for oral route and 12 mice per compound for the intravenous route was treated. Mice was sequentially bled from a caudal vein into a 20 μL capillary (by agreement containing an anticoagulant) at different time as indicated in table below and a terminal bleed by cardiac puncture at 8 h after administration. Samples collected by capillary was directly transferred into a 96 well and mixed with 20 μL of water, then frozen and store at −80° C. until bioanalysis. Mice for urine collection was housed singly in metabolic cages and urine collected at 0-1, 1-2, 2-4 h and 4-8 h post administration. Urine removed from the collection vessels in the metabolic cages and were frozen and store at −80° C. until bioanalysis. 12 mice were used for urine collection. […] A compound specific LC-MS/MS method was developed for each test compound and samples was quantified using matrix matched calibrators. Samples was prepared for bio-analysis via protein precipitation. Concentration vs time data and non-compartmental analysis was utilised to determine relevant PK parameters e.g. CL, Vss, t1/2, AUCinf AUCo-t, Cmax, tmax, % F, % dose in urine and CLR.
# [7] = tested on: EMRSA15; test: MIC, microdilution broth method; format: cell-based, Staphylococcus aureus; details: EMRSA15; in µg/mL
# [8] = tested on: S. aureus SA275 (gyrA, 84: S => L); test: MIC, MDR strains with target mutations; format: cell-based; details: Table 11 second entry
# [9] = tested on: EMRSA16; test: MIC, microdilution broth method; format: cell-based, Staphylococcus aureus; details: EMRSA16
# [10] = tested on: S. aureus SA 282; test: MIC, MDR strains with target mutations; format: cell-based
# [11] = tested on: S. aureus SA 454; test: MIC, MDR strains with target mutations; format: cell-based
# [12] = tested on: S. aureus SA 046; test: MIC, MDR strains with target mutations; format: cell-based
# [13] = tested on: S. aureus SA 275; test: MIC, MDR strains with target mutations; format: cell-based; details: S. aureus SA 275 (gyrA, 84: S => V)
# [14] = tested on: S. aureus USA300; test: MIC; format: cell-based; details: Staphylococcus aureus
# [15] = tested on: VRE12201; test: MIC, microdilution broth method; format: cell-based, E. faecalis; details: VRE12201; Gram-positive; in µg/mL
# [16] = tested on: S. aureus SH1000; test: MIC; format: cell-based; details: Staphylococcus aureus
# [17] = tested on: S. aureus SA 318; format: cell-based
# [18] = tested on: S. aureus SA 388; format: cell-based
# [19] = tested on: E. faecium EF 205; format: cell-based
# [20] = tested on: E. faecalis EF 602; format: cell-based
# [21] = ICR (CD-1 IGS), in vivo, iv, 5 mg/kg
# [22] = ICR (CD-1 IGS), in vivo, po, 20 mg/kg
# [23] = ICR (CD-1 IGS), in vivo, iv, 5.0 mg/kg, blood, Composite Mean
smiles,measurement,setting,value
"C[C@H]1COc2c(N3CC[C@@H](Nc4ncccn4)C3)c(F)cc3c(=O)c(C(=O)O)cn1c23 [KSN-L22, (S)-9-fluoro-3-methyl-7-oxo-10-((R)-3-(pyrimidin-2-ylamino)pyrrolidin-1-yl)-2,3-dihydro-7H-[1,4]oxazino[2,3,4-ij]quinoline-6-carboxylic Acid]",efflux from the bacteria (reserpine growth assay),[1],reduced efflux
same,MIC,[2],1 µg/mL
same,"thigh bacterial burden, result in words","[3]; 20 and 50 mg/kg, 18 h post infection",statistically significant reduction of bacterial load
same,MIC,[4],1
same,MIC,[5],1
same,clearance,"[6]; ICR (CD-1 IGS), in vivo, iv, 5.0 mg/kg, blood, Composite Mean, read-out: Blood CL",12.5 mL/min/kg
same,AUC(0-inf),[6]; [21],6690 ng·h/mL
same,AUC(0-inf),[6]; [22],13200 ng·h/mL
same,Bioavailability (%) Using AUCinf,[6]; [22],49.3%
same,Bioavailability (%) Using AUCo. t,[6]; [22],32.0%
same,CL_F,[6]; [22],26.4 mL/min/kg
same,T1/2,"[6]; PO, 20.0 mg/kg, blood, Mean",5.1 h
same,Vdss,"[6]; iv, 5.0 mg/kg, blood, Composite Mean",1.4 L/kg
same,MIC,[7],0.5-1
same,MIC,[8],1 µg/mL
same,MIC,[9],1 µg/mL
same,MIC,[10],1 µg/mL
same,MIC,[11],1 µg/mL
same,MIC,[12],1 µg/mL
same,MIC,[13],1 µg/mL
"C[C@H]1COc2c(N3CCN(C)CC3)c(F)cc3c(=O)c(C(=O)O)cn1c23 [Levofloxacin, levofloxacin]",MIC,[14],8 µg/mL
same,MIC,[15],0.5-1
same,MIC,[2],32 µg/mL
same,decrease of thigh bacterial burden compared to vehicle group,"[3]; 20 mg/kg/dose oral at 2 h, 18 h post infection",~5 log10 CFU/g
same,decrease of thigh bacterial burden compared to vehicle group,"[3]; 50 mg/kg/dose oral at 2 h, 18 h post infection",~5 log10 CFU/g
same,body weights following infection,[3]; in vivo,unchanged
same,"Statistic analysis of thigh burden, P versus ML-83-009 20 mg/kg",[3]; substance at 20 mg/kg,P = 0.0003
same,"Statistic analysis of thigh burden, P versus ML-83-009 50 mg/kg",[3]; substance at 20 mg/kg,P = 0.0058
same,"Statistic analysis of thigh burden, P versus Vehicle",[3]; substance at 20 mg/kg,P < 0.0001
same,"Statistic analysis of thigh burden, P versus ML-83-009 20 mg/kg",[3]; substance at 50 mg/kg,P < 0.0001
same,"Statistic analysis of thigh burden, P versus ML-83-009 50 mg/kg",[3]; substance at 50 mg/kg,P < 0.0001
same,"Statistic analysis of thigh burden, P versus Pre treatment",[3]; substance at 50 mg/kg,P = 0.0084
same,"Statistic analysis of thigh burden, P versus Vehicle",[3]; substance at 50 mg/kg,P < 0.0001
same,MIC,[4],8-16
same,MIC,[16],2 to 4 µg/mL
same,MIC,[17],16 µg/mL
same,MIC,[5],32 and 16
same,Cmax,"[6]; ICR (CD-1 IGS), in vivo, PO, 20.0 mg/kg, blood, Mean",2950 ng/mL
same,half-life,[6]; [23],0.5 h
same,Cmax,[6]; [23],3890 ng/mL
same,AUC,[6]; [21],3090 ng·h/mL and 8.55 µM·h
same,AUC(0-inf),[6]; [21],3310 ng·h/mL and 9.19 µM·h
same,MRT,[6]; [21],3 h
same,Vd,[6]; [21],4.5 L/kg
same,clearance,[6]; [21],25.2 mL/min/kg
same,AUC,[6]; [22],4260 ng·h/mL and 11.8 µM·h
same,AUC(0-inf),[6]; [22],5390 ng·h/mL and 14.9 µM·h
same,Bioavailability (%) Using AUCo. t,[6]; [22],34.5%
same,Tmax,[6]; [22],0.5 h
same,T1/2,"[6]; PO, 20.0 mg/kg, blood, Mean",5.7 h
same,MIC,[18],16 µg/mL
same,MIC,[9]; Gram-positive,16 µg/mL
same,MIC,[19],> 32 µg/mL
same,MIC,[11],8 µg/mL
same,MIC,[12],16 µg/mL
same,MIC,[20],> 32 µg/mL
